These are literature values, as cited in patent US11484035B2, “Synergistic composition of a nematicide” (TELLURIS BIOTECH INDIA PRIVATE LIMITED, priority 2017, dated 2022).

The series has as its system nematodes. Conditions: individual peptides.

In the case of “DLLRPVVIAPQFSRQ (Caenorhabditis elegans) [Peptide 2, 15 amino acid peptide, 99-113 amino acid stretch of CED-4 protein]”, the “effective concentration for nematicidal activity” value (“effective concentration” for short) is reported as “about 1 mg/ml”.

Take “FPKFMQLHQKFY (Caenorhabditis elegans) [Peptide 12, 12 amino acid peptide, 529-540 amino acid stretch of CED-4 protein]”: the “effective concentration” value was “about 1 mg/ml”. With “RQMLDRKLLLGNVPKQMTC (Caenorhabditis elegans) [Peptide 3, 19 amino acid peptide, 112-130 amino acid stretch of CED-4 protein]”, the “effective concentration” value is given as “about 1 mg/ml”.
